The values below come from patent US6407206B1, “Peptides, methods for assaying human pepsinogen I or human pepsin I and assay kits” (Ono Pharmaceutical Co., Ltd., priority 1996, dated 2002).

Common to all, as to type: biochemical
Assay [1] concerns human pepsin I. The experiment in a line: Digestion of the substrate by human pepsin I, assay by HPLC (released H-Y-pNA). The conditions noted are these: for ratio of relative activity of pepsin I/pepsin II: calculated according to the result from assay by HPLC; for Activitry of pepsin, Determination by HPLC, pepsin I: pepsin 909 ng/ml, substrate 0.5 mM, 37° C. As for the experimental part: (§1) Formic acid buffer or glycine buffer (pH2.0˜3.0) containing each peptide (0.5 mM) prepared in Example 1˜5 (a)
(§2) An aqueous solution of human pepsin I or human pepsin II (0.01 mg/ml)
(§3) Enzyme solution I (0.1 ml) was added to Reagent (1.0 ml). After incubation of the mixture at 37° C. for 10, 30, 60 minutes, the mixture solution (0.3 ml) was collected. To the collected solution, 2N—NaOH (0.025 ml) was added to terminate the reaction. After addition of 2N—HCl (0.025 ml) to the mixture, protein was removed by the ultrafiltration. The assaying H-Y-pNA (Nle-pNA: Example 1 and 2; Tyr-pNA: Example 3; Phe-pNA: Example 4; Phe(NO2)-pNA: Example 5) which was released after digesting by human pepsin in the obtained solution was carried out by HPLC using C18 column.
(§4) The ratio of pepsin I/pepsin II was calculated according to the result from assay by HPLC. Such assay is carried out to confirm that a substrate was digested by pepsin I or pepsin II correctly and that H-Y-pNA was released.

Assay [2] relates to human pepsin I. The experiment in a line: Digestion of the substrate by human pepsin I, assay by coloring p-NA (aminopeptidase M, absorbance at 405 nm). The note with it: substrate 0.5 mM, 37° C. The protocol: as §1, §2
(§5) Aminopeptidase M (marketed from Beringer Manheim Co., derived from pig kidney) was dissolved into 1M Tris-HCl buffer (pH9.0) to be at concentration of 2U/I.
(§6) (2) Assay by Coloring p-NA
(§7) Enzyme solution I (0.1 ml) was added to Reagent (1.0 ml). After incubation of the mixture at 37° C. for 10 minutes, Enzyme solution II (0.05 ml) was added to the mixture solution (0.25 ml). After incubation of the mixture at 37° C. for 5 minutes, the increase in absorbance at 405 nm (Es) was determined. On the other hand, reagent blank value (E(BL)) was determined by the same procedure as above using purified water. According to the following, the increase in absorbance (E) was calculated.

Assay [3] concerns the target T1, human pepsin II (Homo sapiens, UniProt P20142).
T1 sequence (P20142 60-388): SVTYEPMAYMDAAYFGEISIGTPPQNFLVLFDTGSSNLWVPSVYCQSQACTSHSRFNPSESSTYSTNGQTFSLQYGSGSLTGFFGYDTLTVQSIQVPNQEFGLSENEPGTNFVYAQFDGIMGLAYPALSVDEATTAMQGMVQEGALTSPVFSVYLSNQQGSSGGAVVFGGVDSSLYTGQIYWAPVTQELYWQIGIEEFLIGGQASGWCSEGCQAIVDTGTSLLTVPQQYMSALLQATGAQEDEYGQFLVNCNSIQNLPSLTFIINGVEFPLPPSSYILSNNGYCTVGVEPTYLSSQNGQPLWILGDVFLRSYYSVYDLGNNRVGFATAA
As to the kind of experiment: Digestion of the substrate by human pepsin II, assay by HPLC (released H-Y-pNA). The note with it: pepsin 909 ng/ml, substrate 0.5 mM, 37° C. As for the experimental part: as §1, §2, §3, §4

Assay [4] has as its target T1, human pepsin II. As to the kind of experiment: Digestion of the substrate by human pepsin II, assay by coloring p-NA (aminopeptidase M, absorbance at 405 nm). The note with it: substrate 0.5 mM, 37° C. As for the experimental part:
as §1, §2, §5, §6, §7

The mark [5] stands for this setting: reaction pH 2.0, pepsin 909 ng/ml.
Where [6] appears, read: reaction pH 3.0, pepsin 909 ng/ml.

Square brackets hold non-standard residues; d marks the D form. Ends that are not written are not given here. * marks the point of attachment. Phe(4-NO2) = N[C@@H](Cc1ccc([N+](=O)[O-])cc1)C(=O)O; pNA = O=[N+]([O-])c1ccc(N*)cc1; Nle = CCCC[C@H](N)C(=O)O

In the case of “N^α-AcLysProIleGlu-Phe(NO2)-Nle-pNA.CF3COOH (Ac-KPIE[Phe(4-NO2)][Nle]-pNA; also: TFA salt) [Example 5(a)]”, in the assay on human pepsin I [1] (reaction pH 2.0), the “ratio of relative activity of pepsin I/pepsin II” value is recorded as 52.8 and the “Activitry of pepsin, Determination by HPLC, pepsin I” value stood at 36.4 μM/min · 909 ngEnz/ml. The “Activitry of pepsin, Determination by p-NA, pepsin I” value in the assay with human pepsin I [2] (setting [5]) is given as 3036.2 mABS/10 min · 909 ngEnz/ml. Moreover, the “Activitry of pepsin, Determination by HPLC, pepsin II” value (shortened to “Activitry … by HPLC, pepsin II”) with human pepsin II [3] (reaction pH 2.0) turned out to be 0.69 μM/min · 909 ngEnz/ml. The “Activitry of pepsin, Determination by p-NA, pepsin II” value (from here on “Activitry … by p-NA, pepsin II”) in the assay with human pepsin II [4] (setting [5]) is reported as 57.3 mABS/10 min · 909 ngEnz/ml.

For the substance “LysProIleGluPheNle-pNA.2CF3COOH (KPIEF[Nle]-pNA; also: trifluoroacetate salt (2CF3COOH)) [Example 2]”, in the assay with human pepsin I [1] (reaction pH 3.0), the “ratio of relative activity of pepsin I/pepsin II” value is 23.2 and the “Activitry of pepsin, Determination by HPLC, pepsin I” value turned out to be 8.6 μM/min · 909 ngEnz/ml. Moreover, in the assay with human pepsin I [2] (setting [6]), the “Activitry of pepsin, Determination by p-NA, pepsin I” value is recorded as 716.7 mABS/10 min · 909 ngEnz/ml. In addition, the “Activitry … by HPLC, pepsin II” value in the assay with human pepsin II [3] (reaction pH 3.0) was 0.37 μM/min · 909 ngEnz/ml. Further, the “Activitry … by p-NA, pepsin II” value in the assay with human pepsin II [4] (setting [6]) was 30.8 mABS/10 min · 909 ngEnz/ml.

As for “N^α-Ac-LysProIleGluPheNle-pNA.CF3COOH (Ac-KPIEF[Nle]-pNA; also: TFA salt) [Example 1]”, in the assay with human pepsin I [1] (reaction pH 2.0), the “ratio of relative activity of pepsin I/pepsin II” value is 95.8 and the “Activitry of pepsin, Determination by HPLC, pepsin I” value is 52.7 μM/min · 909 ngEnz/ml. For the same substance, the “Activitry of pepsin, Determination by p-NA, pepsin I” value with human pepsin I [2] (setting [5]) is reported as 4391.7 mABS/10 min · 909 ngEnz/ml. Also, in the assay with human pepsin II [3] (reaction pH 2.0), the “Activitry … by HPLC, pepsin II” value was determined as 0.55 μM/min · 909 ngEnz/ml. The “Activitry … by p-NA, pepsin II” value with human pepsin II [4] (setting [5]) is listed as 45.8 mABS/10 min · 909 ngEnz/ml.

For “LysProIleGluPhePhe-pNA -2CF3COOH (KPIEFF-pNA; also: trifluoroacetate salt (2CF3COOH)) [Example 4]”, in the assay with human pepsin I [1] (reaction pH 3.0), the “ratio of relative activity of pepsin I/pepsin II” value is reported as 68.1 and the “Activitry of pepsin, Determination by HPLC, pepsin I” value stood at 10.9 μM/min · 909 ngEnz/ml. Further, the “Activitry of pepsin, Determination by p-NA, pepsin I” value in the assay on human pepsin I [2] (setting [6]) was 908.3 mABS/10 min · 909 ngEnz/ml. Besides, the “Activitry … by HPLC, pepsin II” value with human pepsin II [3] (reaction pH 3.0) stood at 0.16 μM/min · 909 ngEnz/ml. In addition, the “Activitry … by p-NA, pepsin II” value with human pepsin II [4] (setting [6]) is reported as 13.3 mABS/10 min · 909 ngEnz/ml.

As for “LysProIleGluPhePhe(NO2)-pNA.2CF3COOH (KPIEF[Phe(4-NO2)]-pNA; also: 2 TFA salt) [Example 5]”, in the assay with human pepsin I [1] (reaction pH 3.0), the “ratio of relative activity of pepsin I/pepsin II” value is on record as 17.1 and the “Activitry of pepsin, Determination by HPLC, pepsin I” value is 1.2 μM/min · 909 ngEnz/ml. For the same substance, the “Activitry of pepsin, Determination by p-NA, pepsin I” value in the assay on human pepsin I [2] (setting [6]) was 100.0 mABS/10 min · 909 ngEnz/ml. Also, in the assay with human pepsin II [3] (reaction pH 3.0), the “Activitry … by HPLC, pepsin II” value is reported as 0.07 μM/min · 909 ngEnz/ml. In addition, the “Activitry … by p-NA, pepsin II” value in the assay with human pepsin II [4] (setting [6]) is on record as 5.8 mABS/10 min · 909 ngEnz/ml.

On to “LysProIleGluPheTyr-pNA.2CF3COOH (KPIEFY-pNA; also: TFA salt (2CF3COOH)) [Example 3]”, for which, in the assay with human pepsin I [1] (reaction pH 2.0), the “ratio of relative activity of pepsin I/pepsin II” value is given as 46.2 and the “Activitry of pepsin, Determination by HPLC, pepsin I” value is 17.1 μM/min · 909 ngEnz/ml. Moreover, in the assay on human pepsin I [2] (setting [5]), the “Activitry of pepsin, Determination by p-NA, pepsin I” value is on record as 1425.0 mABS/10 min · 909 ngEnz/ml. Also, the “Activitry … by HPLC, pepsin II” value with human pepsin II [3] (reaction pH 2.0) is 0.37 μM/min · 909 ngEnz/ml. The “Activitry … by p-NA, pepsin II” value with human pepsin II [4] (setting [5]) is given as 30.8 mABS/10 min · 909 ngEnz/ml.
